# Experimental data: patent US8993595B2, “Macrocyclic serine protease inhibitors” (priority 2009, dated 2015)
# Where two headings read alike, the source gives them in different places.
# What was measured:
# human CYP450 1A2 = molecular target: T1, human CYP450 1A2 (Homo sapiens, UniProt P05177); assay: CYP450 inhibition assay, 1A2; assay type: in vitro ADME
# T1 construct: purchased BD Bioscience
# Protocol: Compound 52 was incubated with human CYP450 cDNA-expressed isoenzymes according to the protocol (BD Bioscience). For CYP2C9, a luminogenic substrate was used with the P450-Glo™ kit. In addition, the effect of the compound on CYP2C9-mediated diclofenac metabolism was measured by LC-UV. The potential inhibitory effect of the compound on human UGT1A1 was examined using human liver microsomes and bilirubin as substrate. The metabolites (mono- and di-glucuronidated bilirubin) were measured by LC-UV.
# [1] = human, in vivo
# [2] = test system: ZlucA cell line (genotype 1b replicon selected with 10 nM compound 52, D168V); assay: Extent of resistance after selection, luciferase assay, ZlucA; assay type: cell-based, HCV; settings: selecting conc. 10 nM, EC50 resistant / EC50 wild-type
# Protocol: Replicon cells (genotype 1a or 1b) were treated with various concentrations of compound 52 in the presence of G418. Treatment-emergent genotypic changes were identified by population sequencing of NS3 (both protease and helicase regions). The activity of compound 52 and other compounds was evaluated by NS5A western blot after selection or luciferase assay during and after selection.
# Eight drug-resistance replicon cell lines were created by long-term culture of genotype 1b replicon cells with 10 or 25 nM of compound 52. NS3 (AAs 1-631) was sequenced at each passage.
# in vivo = settings: for Mean concentration, Heart / Mean concentration, Liver / Mean concentration, Plasma / Kp: single 2 mg/kg oral dose; for AUC(0-inf) / C24 h / F / AUC(0-t) / Vd / clearance / half-life / Cmax / Tmax / Kp: 2 mg/kg
# Protocol: Male mice (3/time point) and monkeys (3/dose group) were given a single IV or PO dose of compound 52 in a PEG-based vehicle. The compound was quantified in liver (LLOQ=25 ng/g) and heart (LLOQ=50 ng/g) tissue (mice only) and in plasma samples (LLOQ=5 ng/mL) after liquid-liquid extraction by HPLC-MS/MS. Six healthy volunteers were given a single 200 mg dose of the compound using the selected tablet formulation and plasma concentrations were similarly determined (LLOQ=2 ng/mL). PK parameters were calculated using WinNonlin.
# [3] = molecular target: T2, HCV NS3-4A Protease Genotype 1b (Hepatitis C virus genotype 1b, UniProt Q9WMX2); assay: HCV protease assay, recombinant NS3-4A genotype 1b; assay type: biochemical; settings: mean ± SD, 3 experiments
# T2 construct: recombinant HCV NS3-4A proteases
# Protocol: (§1) The compounds were tested at a variety of concentrations in assay buffer containing a final DMSO concentration of 5%. Reactions were allowed to proceed for 60 min at room temperature and fluorescence measurements were recorded with a Tecan Infinity Spectrofluorimeter. The IC50 values were determined from the percent inhibition versus concentration data using a sigmoidal non-linear regression analysis based on four parameters with Tecan Magellan software.
# (§2) Compound 52 was tested against genotypes 1a, 1b, 2a, 3a, and 4a of recombinant HCV NS3-4A proteases, along with other cellular proteases.
# clinical = settings: human, in vivo; for AUC(0-inf): AUC0-∞
# hERG channel = molecular target: T3, hERG channel (Homo sapiens, UniProt Q12809); assay: hERG channel currents in voltage-clamped HEK293 cells; assay type: cell-based
# T3 construct: expressed in transfected cells; host or cells: HEK293
# Description: One in vitro GLP safety pharmacology study evaluated the effects of compound 52 on hERG channel currents in voltage-clamped human embryonic kidney cells (HEK293) stably expressing the human ether-à-go-go-related gene (hERG) channel. Four in vivo GLP safety pharmacology studies evaluated the potential effects of the compound on the cardiovascular and respiratory systems in the cynomolgus monkey and on the central nervous, renal, and gastrointestinal systems in the CD-1 mouse at single oral doses up to 250 mg/kg of compound 52.
# [4] = human plasma
# [5] = monkey plasma
# in vitro = assay type: cell-based; settings: 48 hrs, intracellular ATP
# Protocol: Freshly isolated hepatocytes were incubated with various concentrations of […] for 48 hrs. Intracellular ATP content was measured (CellTiter-Glo luminescent cell viability assay) to determine cell cytotoxicity (CC50).
# [6] = Cytotoxicity in parallel, colorimetric proliferation assay, 1a replicon cells; assay type: cell-based; settings: human, replicon cells (genotype 1a)
# [7] = molecular target: T4, HCV NS3-4A Protease Genotype 3a (Hepatitis C virus genotype 3a, UniProt Q81258); assay: HCV protease assay, recombinant NS3-4A genotype 3a; assay type: biochemical; settings: mean ± SD, 3 experiments
# T4 construct: recombinant HCV NS3-4A proteases
# Protocol: as §1, §2
# [8] = 50 mg, single dose 50 mg, human volunteers
# [9] = 100 mg, single dose 100 mg, human volunteers
# [10] = 200 mg, single dose 200 mg, HCV patients, N = 2
# [11] = 200 mg, single dose 200 mg, human volunteers
# [12] = 400 mg, single dose 400 mg Fasted, human volunteers
# [13] = 400 mg, single dose 400 mg, human volunteers
# T3 sequence (Q12809 whole entry): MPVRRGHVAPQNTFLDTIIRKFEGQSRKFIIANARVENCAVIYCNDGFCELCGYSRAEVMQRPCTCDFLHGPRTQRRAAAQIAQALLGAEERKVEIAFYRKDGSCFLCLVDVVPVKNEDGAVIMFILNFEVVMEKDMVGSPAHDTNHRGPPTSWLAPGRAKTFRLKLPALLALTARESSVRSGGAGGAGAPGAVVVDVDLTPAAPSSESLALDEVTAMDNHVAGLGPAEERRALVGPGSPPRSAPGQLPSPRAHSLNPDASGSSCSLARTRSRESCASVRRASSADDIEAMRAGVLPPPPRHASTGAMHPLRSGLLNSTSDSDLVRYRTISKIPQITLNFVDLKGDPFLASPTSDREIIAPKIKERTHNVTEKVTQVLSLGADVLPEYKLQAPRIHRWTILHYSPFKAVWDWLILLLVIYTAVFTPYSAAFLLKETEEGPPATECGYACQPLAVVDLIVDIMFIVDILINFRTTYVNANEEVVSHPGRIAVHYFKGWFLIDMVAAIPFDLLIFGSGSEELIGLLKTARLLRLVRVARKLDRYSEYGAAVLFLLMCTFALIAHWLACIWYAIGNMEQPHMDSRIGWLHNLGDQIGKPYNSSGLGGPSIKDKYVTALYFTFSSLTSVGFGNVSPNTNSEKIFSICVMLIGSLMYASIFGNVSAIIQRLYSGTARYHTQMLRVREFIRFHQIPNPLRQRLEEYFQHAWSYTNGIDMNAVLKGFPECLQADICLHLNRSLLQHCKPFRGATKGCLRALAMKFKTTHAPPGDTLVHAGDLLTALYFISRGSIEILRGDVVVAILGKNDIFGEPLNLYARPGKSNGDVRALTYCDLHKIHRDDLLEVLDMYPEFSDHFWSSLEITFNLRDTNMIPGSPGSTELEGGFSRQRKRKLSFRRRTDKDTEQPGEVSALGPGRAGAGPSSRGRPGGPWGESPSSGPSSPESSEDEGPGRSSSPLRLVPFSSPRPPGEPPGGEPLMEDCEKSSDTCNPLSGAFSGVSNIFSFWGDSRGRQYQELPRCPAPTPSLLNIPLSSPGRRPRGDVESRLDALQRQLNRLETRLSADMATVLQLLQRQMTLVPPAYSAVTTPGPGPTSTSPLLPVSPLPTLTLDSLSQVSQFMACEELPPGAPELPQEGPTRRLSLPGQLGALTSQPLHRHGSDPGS
# T2 sequence (Q9WMX2 1658-1711): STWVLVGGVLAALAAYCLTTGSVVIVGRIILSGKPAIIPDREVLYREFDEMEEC
# T2 sequence (Q9WMX2 1027-1657): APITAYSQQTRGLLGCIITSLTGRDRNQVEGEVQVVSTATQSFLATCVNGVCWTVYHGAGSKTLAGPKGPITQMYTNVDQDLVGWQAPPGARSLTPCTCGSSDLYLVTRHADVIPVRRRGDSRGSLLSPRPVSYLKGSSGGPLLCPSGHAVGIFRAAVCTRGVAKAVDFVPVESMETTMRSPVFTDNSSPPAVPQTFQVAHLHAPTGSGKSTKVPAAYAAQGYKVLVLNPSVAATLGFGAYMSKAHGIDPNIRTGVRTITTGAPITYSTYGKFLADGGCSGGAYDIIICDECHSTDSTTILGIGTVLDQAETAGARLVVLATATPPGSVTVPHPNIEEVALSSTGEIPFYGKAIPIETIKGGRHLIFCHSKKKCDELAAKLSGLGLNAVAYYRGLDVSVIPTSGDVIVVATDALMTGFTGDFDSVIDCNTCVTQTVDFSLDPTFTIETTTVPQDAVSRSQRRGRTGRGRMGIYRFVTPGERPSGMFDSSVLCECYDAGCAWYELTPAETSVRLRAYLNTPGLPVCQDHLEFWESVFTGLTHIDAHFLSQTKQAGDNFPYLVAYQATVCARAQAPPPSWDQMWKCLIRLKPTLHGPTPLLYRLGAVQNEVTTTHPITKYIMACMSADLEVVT
# T4 sequence (Q81258 1664-1717): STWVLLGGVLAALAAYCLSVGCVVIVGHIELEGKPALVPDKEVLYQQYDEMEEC
# T4 sequence (Q81258 1033-1663): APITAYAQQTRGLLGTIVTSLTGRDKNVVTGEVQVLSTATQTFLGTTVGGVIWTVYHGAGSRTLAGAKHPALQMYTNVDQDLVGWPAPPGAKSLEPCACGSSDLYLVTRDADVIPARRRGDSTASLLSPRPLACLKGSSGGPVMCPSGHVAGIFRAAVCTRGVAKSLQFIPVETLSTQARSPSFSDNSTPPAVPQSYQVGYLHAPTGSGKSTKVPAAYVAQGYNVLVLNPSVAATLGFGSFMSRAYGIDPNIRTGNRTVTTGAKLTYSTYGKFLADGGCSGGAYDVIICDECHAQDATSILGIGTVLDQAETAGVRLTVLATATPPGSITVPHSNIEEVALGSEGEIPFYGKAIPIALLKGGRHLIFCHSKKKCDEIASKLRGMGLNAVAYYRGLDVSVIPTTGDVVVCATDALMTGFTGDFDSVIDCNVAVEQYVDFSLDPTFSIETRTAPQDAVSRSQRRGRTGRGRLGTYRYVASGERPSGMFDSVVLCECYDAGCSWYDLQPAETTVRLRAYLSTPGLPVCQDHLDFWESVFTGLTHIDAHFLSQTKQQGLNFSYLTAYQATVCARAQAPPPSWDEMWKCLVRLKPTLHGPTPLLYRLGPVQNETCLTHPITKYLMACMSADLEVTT
# T1 sequence (P05177 whole entry): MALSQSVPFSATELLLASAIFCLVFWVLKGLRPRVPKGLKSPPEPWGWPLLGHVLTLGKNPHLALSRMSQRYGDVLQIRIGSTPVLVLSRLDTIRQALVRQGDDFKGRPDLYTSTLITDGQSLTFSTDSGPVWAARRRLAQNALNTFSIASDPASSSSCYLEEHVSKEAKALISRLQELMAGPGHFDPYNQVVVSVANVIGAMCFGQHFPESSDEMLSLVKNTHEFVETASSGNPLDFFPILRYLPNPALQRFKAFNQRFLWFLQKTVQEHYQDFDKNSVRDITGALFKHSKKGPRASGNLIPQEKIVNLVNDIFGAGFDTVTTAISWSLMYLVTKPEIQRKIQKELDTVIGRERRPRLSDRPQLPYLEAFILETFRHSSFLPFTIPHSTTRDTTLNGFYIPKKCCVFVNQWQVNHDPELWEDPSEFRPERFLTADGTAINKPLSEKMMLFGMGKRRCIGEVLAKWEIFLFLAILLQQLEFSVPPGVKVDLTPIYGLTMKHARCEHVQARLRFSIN
compound,measurement,setting,value
"COc1ccc2c(O[C@H]3CCN4C(=O)N(C)CCCC/C=C\[C@@H]5C[C@@]5(C(=O)NS(=O)(=O)C5(C)CC5)NC(=O)[C@@H]4C3)cc(-c3nc(C(F)(F)F)cs3)nc2c1C [Compound 52, 1-methyl-cyclopropanesulfonic acid{(Z)-(1S,4R,6S,18S)-18-[7-methoxy-8-methyl-2-(4-trifluoromethyl-thiazol-2-yl)-quinolin-4-yloxy]-13-methyl-2,14-dioxo-3,13,15-triaza-tricyclo[13.4.0.0*4,6*]nonadec-7-ene-4-carbonyl}amide]",IC50,human CYP450 1A2,≥ 10 µM
same,C24 hr,[1],8 ± 5 ng/mL
same,Fold-Change,[2],250 ± 66
same,"Mean concentration, Heart",in vivo; 2 hr,144 ng/g
same,"Mean concentration, Liver",in vivo; 2 hr,4410 ng/g
same,"Mean concentration, Plasma",in vivo; 2 hr,174 ng/mL
same,"Mean concentration, Heart",in vivo; 6 hr,93.0 ng/g
same,"Mean concentration, Liver",in vivo; 6 hr,3540 ng/g
same,"Mean concentration, Plasma",in vivo; 6 hr,121 ng/mL
same,"Mean concentration, Liver",in vivo; 24 hr,57.6 ng/g
same,"Mean concentration, Plasma",in vivo; 24 hr,1.45 ng/mL
same,"Mean concentration, Heart","in vivo; 24 hr, BLQ = below 50 ng/g",BLQ^2
same,AUC(0-inf),"in vivo; cynomolgus monkey, po",8920 ± 2190 ng·h/mL
same,C24 h,"in vivo; cynomolgus monkey, po",81 ± 47 ng/mL
same,F,"in vivo; cynomolgus monkey, po",107 ± 40%
same,AUC(0-t),"in vivo; male, CD-1, mouse, in vivo, iv",4060 ng·h/mL
same,C24 h,"in vivo; male, CD-1, mouse, in vivo, iv",7.9 ± 11 ng/mL
same,Vd,"in vivo; male, CD-1, mouse, in vivo, iv",4.4 L/kg
same,clearance,"in vivo; male, CD-1, mouse, in vivo, iv",8 mL/min/kg
same,half-life,"in vivo; male, CD-1, mouse, in vivo, iv",6.3 h
same,AUC(0-t),"in vivo; male, CD-1, mouse, in vivo, po",1410 ng·h/mL
same,C24 h,"in vivo; male, CD-1, mouse, in vivo, po",1.5 ± 0.3 ng/mL
same,Cmax,"in vivo; male, CD-1, mouse, in vivo, po",174 ng/mL
same,F,"in vivo; male, CD-1, mouse, in vivo, po",34.7%
same,Tmax,"in vivo; male, CD-1, mouse, in vivo, po",2 h
same,Kp,"in vivo; male, CD-1, mouse, in vivo, po, Mean concentration ratio Heart/Plasma, 2 hr",0.79
same,Kp,"in vivo; male, CD-1, mouse, in vivo, po, Mean concentration ratio Heart/Plasma, 6 hr",0.78
same,Kp,"in vivo; male, CD-1, mouse, in vivo, po, Mean concentration ratio Liver/Plasma, 2 hr",27
same,Kp,"in vivo; male, CD-1, mouse, in vivo, po, Mean concentration ratio Liver/Plasma, 6 hr",30
same,Kp,"in vivo; male, CD-1, mouse, in vivo, po, Mean concentration ratio Liver/Plasma, 24 hr",39
same,AUC(0-inf),"in vivo; male, cynomolgus monkey, iv",9580 ± 1420 ng·h/mL
same,C24 h,"in vivo; male, cynomolgus monkey, iv",66 ± 26 ng/mL
same,Vd,"in vivo; male, cynomolgus monkey, iv",3.5 ± 0.5 L/kg
same,clearance,"in vivo; male, cynomolgus monkey, iv",3.83 mL/min/kg
same,half-life,"in vivo; male, cynomolgus monkey, iv",10.3 ± 1 h
same,Cmax,"in vivo; male, cynomolgus monkey, po",1030 ± 270 ng/mL
same,Tmax,"in vivo; male, cynomolgus monkey, po",1 h
same,half-life,"in vivo; male, cynomolgus monkey, po",7.6 ± 2 h
same,clearance relative to hepatic blood flow,in vivo; mouse,−9 % of hepatic blood flow
same,IC50,[3],0.0012 ± 0.0001 µM
same,AUC(0-inf),clinical; [8],2020 ± 744 ng·h/mL
same,Cmax,clinical; [8],346 ± 87 ng/mL
same,half-life,"clinical; 50 mg, T1/2, single dose 50 mg, human volunteers",13 ± 6 h
same,Tmax,clinical; [8],3 h
same,AUC(0-inf),clinical; [9],3540 ± 1010 ng·h/mL
same,Cmax,clinical; [9],467 ± 72 ng/mL
same,half-life,"clinical; 100 mg, T1/2, single dose 100 mg, human volunteers",24 ± 7 h
same,Tmax,clinical; [9],3 h
same,AUC(0-inf),clinical; [10],13900 ng·h/mL
same,AUC(0-inf),clinical; [11],7240 ± 2930 ng·h/mL
same,Cmax,clinical; [10],1060 ng/mL
same,Cmax,clinical; [11],982 ± 463 ng/mL
same,half-life,"clinical; 200 mg, T1/2, single dose 200 mg, HCV patients, N = 2",32 h
same,half-life,"clinical; 200 mg, T1/2, single dose 200 mg, human volunteers",26 ± 7 h
same,Tmax,clinical; [10],3.5 h
same,Tmax,clinical; [11],3 h
same,AUC(0-inf),clinical; 400 mg,9460 ± 2330 ng·h/mL
same,AUC(0-inf),clinical; [12],4190 ± 1590 ng·h/mL
same,Cmax,clinical; [12],368 ± 89 ng/mL
same,Cmax,clinical; [13],1120 ± 505 ng/mL
same,half-life,"clinical; 400 mg, T1/2, single dose 400 mg Fasted, human volunteers",15 ± 8 h
same,half-life,"clinical; 400 mg, T1/2, single dose 400 mg, human volunteers",25 ± 7 h
same,Tmax,clinical; [12],3 h
same,Tmax,clinical; [13],3 h
same,effect on cardiac hERG potassium channel current,hERG channel,did not affect
same,protein bound in plasma,[4],99.6%
same,protein bound in plasma,[5],99.9%
same,CC50,in vitro; fresh human hepatocytes,> 10 µM
same,CC50,in vitro; fresh monkey hepatocytes,> 10 µM
same,CC50,in vitro; fresh mouse hepatocytes,> 10 µM
same,CC50,in vitro; fresh rat hepatocytes,> 10 µM
same,CC50 at 5 days,[6],> 77 µM
same,IC50,[7],0.023 ± 0.0019 µM
